Assay results reported in patent publication US9260759B2, “Pyrazoloanthrone and derivatives thereof for the treatment of cancers expressing MISRII” (The General Hospital Corporation, priority 2007, dated 2016).

Key:
[1] = tested on: type II receptor for activin; assay: CAGA-promoter luciferase reporter in COS7 cells co-transfected with activin type II receptor; format: cell-based; details: alone or in combination with the receptor-ligand, COS7 (data not shown)
endogenous MISRII = molecular target: T1, endogenous MISRII (Mus musculus, UniProt Q8K592); assay: BRE-luciferase reporter assay in MOVCAR7 cells expressing endogenous MISRII; format: cell-based
T1 construct: a mouse ovarian cancer cell line, MOVCAR7, that expresses endogenous MISRII; endogenous in cells; host or cells: MOVCAR7 (mouse ovarian cancer cell line)
T1 sequence (Q8K592 16-568): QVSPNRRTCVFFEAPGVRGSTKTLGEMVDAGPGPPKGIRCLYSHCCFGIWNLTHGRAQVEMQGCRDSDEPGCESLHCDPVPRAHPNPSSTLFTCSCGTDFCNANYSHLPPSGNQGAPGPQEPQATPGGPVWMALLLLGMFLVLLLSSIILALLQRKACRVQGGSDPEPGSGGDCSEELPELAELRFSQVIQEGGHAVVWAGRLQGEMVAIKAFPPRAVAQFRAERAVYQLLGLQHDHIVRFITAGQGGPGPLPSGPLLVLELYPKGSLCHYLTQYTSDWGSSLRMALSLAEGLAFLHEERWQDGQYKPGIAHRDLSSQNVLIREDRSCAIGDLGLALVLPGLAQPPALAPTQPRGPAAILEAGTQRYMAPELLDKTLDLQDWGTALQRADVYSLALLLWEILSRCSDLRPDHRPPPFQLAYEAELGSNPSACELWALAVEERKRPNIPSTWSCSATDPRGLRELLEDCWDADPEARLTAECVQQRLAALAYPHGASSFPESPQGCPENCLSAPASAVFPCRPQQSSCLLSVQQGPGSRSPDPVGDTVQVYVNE

c-jun = assay: Western blot of anisomycin-induced c-jun phosphorylation in MOVCAR cells; format: cell-based, mouse
Experimental: The results are representative of several experiments.
Cells were washed in PBS and lysates were prepared in 1× Passive lysis buffer (PLB) provided with the Dual luciferase reporter assay kit (Promega). The lysates were cleared by centrifugation and the protein concentration was determined by Bradford assay (Bio-Rad, Hercules Calif.). […] of protein were loaded onto a NuPAGE 4-12% Bis-Tris gradient gel with MOPS-buffer (Invitrogen, Carlsbad Calif.) for polyacrylamide gel electrophoresis. Following transfer to a nitrocellulose by electroblotting, the membrane was blocked in 5% milk Tris-buffered saline/Tween20 (TBS-T) for 1 h at room temperature and incubated with primary antibody (pJNK, c-jun and phosph c-jun antibodies were purchased from Cell Signalling, Danvers, Mass.; amd JNK antibody was published from Santa Cruz Biotechnology, Calif.) overnight at 4° C. in 5% BSA followed by incubation with secondary horseradish peroxidase conjugated anti-rabbit antibody (Jackson ImmunoResearch, Westgrove Pa.) for 1 h. Immunoreactive proteins were detected by enhanced chemiluminescence (Pierce, Rockford Ill.). Anisomycin was purchased from Calbiochem.
The known Jun kinase activator anisomycin was used as a positive control (Hazzalin, 1998). […] Further, MIS had no effect on phosphorylation of JNK by anisomycin.

MOVCAR7 cells = assay: MTT proliferation assay, MOVCAR7 cells; format: cell-based; details: Mus musculus, 168 h; MOVCAR cells, 7 days, MTT; read-out: IC50, inhibition of cell proliferation
Experimental: Cells were plated in 96-well plates and treated the day after. Seven days after plating the cell survival was measured using 3-(4,5-dimethylthiazol-2-yl)-2,5-diphenyltetrazolium bromide substrate and measuring the absorbance at 550 nm.
(Connolly, 2003). The 4306 cells were provided by Dr. Daniela Dinulescu, Brigham and Women's (Boston) (30). Cells were plated at a density of 1000 cells/well in 96-well plates and treated 24 h later. The cell proliferation was measured after 7 days by registering the absorbance at 550 nm. Paclitaxel was manufactured by Ivax Pharmaceuticals and obtained from the MGH pharmacy.
The cells were treated for 7 days and the proliferation was measured by spectrophotometry. To exclude cytotoxic effects on the cells unrelated to MIS signal transduction, we used untransfected COS7 cells as a negative control. […] Paclitaxel is used in treatment of a wide range of tumors, but the side effects can be debilitating (Pieretti-Vanmarcke, 2006a, Pieretti-Vanmarcke, 2006b).

cancer cells = assay: Apoptosis of cancer cells; format: cell-based; details: 2-5 μM as compared with 10-20 μM
Excerpt: Paclitaxel has been used in the treatment of a wide range of tumors, including ovarian, breast, and prostate. It exerts its effect by targeting the microtubules and arresting the cells in G2/M phase, leading to the induction of apoptosis (Bhalla et al, 2003, Oncogene 22:9075-908645). […] Additionally, paclitaxel is thought to exert a biphasic apoptosis effect through a p53-dependent pathway that induces apoptosis at lower concentrations, whereas at higher concentrations, it inhibits p53 expression in an […] carcinoma cell line (Tan et al., 2002; Int J Cancer 97:168-172).

SMILES: O=C1c2ccccc2-c2n[nH]c3cccc1c23 [SP600125, anthra[1,9-cd]pyrazol-6(2H)-one]
- effect on CAGA-luciferase reporter [1]: did not have any significant effect
- increase in BRE-luciferase activity compared to untreated control (endogenous MISRII; 25 μM SP600125, MOVCAR7, 24 h): 5 fold
- increase in the BRE-response, combined treatment (endogenous MISRII; MIS 5 μg/ml and SP600125 25 μM combined, MOVCAR7, 24 h): 16 fold
- c-jun phosphorylation induced by 500 nM anisomycin (c-jun; pre-treatment 10 uM SP600125): marginal and inconsistent inhibition
- c-jun phosphorylation induced by 500 nM anisomycin (c-jun; pre-treatment 25 uM): inhibition of c-jun phosphorylation
- IC50 (MOVCAR7 cells): 4.5 µM
- apoptosis (cancer cells): did not result in apoptosis
